Measured values as given in US12498382B2, “Biomarkers for vitiligo” (INCYTE CORPORATION, priority 2019, dated 2025).

Test system: HaCaT cells
Test: Concentrations of inflammatory mediators produced by HaCaT cells stimulated with TNFα and IFNγ in presence/absence of JAK inhibitors (ProCarta)
Format: cell-based, human
Description: After 48 hours, cell culture media was removed from 24 well plates and replaced with 250 uL of media containing serial diluted drug, then incubated for 15 minutes at 37° C./5% CO2. […] The final concentration of Recombinant Human Interferon gamma and Recombinant Human Tumor Necrosis Factor alpha was 25 ng/mL of each cytokine. Cytokine stimulation added to wells containing drug brought the final concentrations for each drug treatment to 25 nM, 50 nM, 100 nM, and 200 nM. Treated plates were mixed by gentle agitation for 30 seconds then incubated for 24 hours at 37° C./5% CO2. At the end of the 24 hour incubation media was immediately removed from each plate.
Media was incubated with antibody conjugated beads designed to bind to the epitopes of specific target proteins and identify the bound protein through the bead's distinctive spectral pattern. Biotinylated detection antibodies, designed to bind to different epitopes of the same target proteins, and Streptavidin-PE are added to assay plates to quantify the amount of the target proteins. Assay plates were read on the Luminex 200 and data were expressed as Net Median Fluorescence Intensity. […] The concentration of each protein was extrapolated from the antigen standard curve and concentrations were expressed as pg/mL (Table 15).

[1] = TNFα 25 ng/mL + IFNγ 25 ng/mL, drug 100 nM
[2] = TNFα 25 ng/mL + IFNγ 25 ng/mL, drug 200 nM

N#CCC1(n2cc(-c3ncnc4[nH]ccc34)cn2)CN(C2CCN(C(=O)c3ccnc(C(F)(F)F)c3F)CC2)C1 [Cpc B] gave an IL15 concentration [1] of 2.58 ± 0.68 pg/mL, an IL17A concentration [1] of 4.84 ± 0.34 pg/mL and an IL18 concentration [1] of 156.06 ± 3.24 pg/mL. The IL21 concentration [1] was 2.36 ± 0.35 pg/mL, the IL22 concentration [1] was 8.03 ± 0.87 pg/mL and the IL23 concentration [1] was 6.44 ± 0.69 pg/mL. For the same compound, the IL27 concentration [1] was 5.36 ± 0.73 pg/mL, the IL31 concentration [1] was 3.35 ± 0.44 pg/mL and the IP-10/CXCL10 concentration [1] was 4050.7 ± 471.31 pg/mL. It also gave an LIF concentration [1] of 70.3 ± 3.65 pg/mL, an MCP1 concentration [1] of 15200 ± 0 pg/mL and an MIP1 alpha concentration [1] of 91.52 ± 5.05 pg/mL. The MIP1 beta concentration [1] was 323.13 ± 6.82 pg/mL, the PDGF-BB concentration [1] was 5.4 ± 0.16 pg/mL and the PIGF-1 concentration [1] was 54.67 ± 3.27 pg/mL. It also gave an RANTES concentration [1] of 194.21 ± 12.67 pg/mL, an SCF concentration [1] of 4.26 ± 0.17 pg/mL and an SDF-1 alpha concentration [1] of 3471.01 ± 111.77 pg/mL. For the same compound, the TNF alpha concentration [1] was 11722.68 ± 1259.67 pg/mL, the TNF beta concentration [1] was 4 ± 0.51 pg/mL and the VEGF-A concentration [1] was 1262.01 ± 46.28 pg/mL. For the same compound, the VEGF-D concentration [1] was 8.71 ± 0.65 pg/mL, the bNGF concentration [1] was 7.04 ± 0.59 pg/mL and the BDNF concentration [2] was 4.1 ± 0.24 pg/mL. For the same compound, the EGF concentration [2] was 1.52 ± 0.1 pg/mL, the Eotaxin concentration [2] was 10.05 ± 0.19 pg/mL and the FGF-2 concentration [2] was 21.39 ± 1.61 pg/mL. It also gave a GM-CSF concentration [2] of 134.13 ± 3.74 pg/mL, a GRO alpha concentration [2] of 563.61 ± 42.17 pg/mL and an HGF concentration [2] of 13.5 ± 0.57 pg/mL. It also gave an IFN alpha concentration [2] of 0.26 ± 0 pg/mL, an IFN gamma concentration [2] of 25272.53 ± 3796.83 pg/mL and an IL1RA concentration [2] of 5710.44 ± 269.38 pg/mL. For the same compound, the IL1 alpha concentration [2] was 6.16 ± 0.35 pg/mL, the IL1 beta concentration [2] was 8.43 ± 0.29 pg/mL and the IL2 concentration [2] was 31.86 ± 1.25 pg/mL. The IL4 concentration [2] was 6.42 ± 1.24 pg/mL, the IL5 concentration [2] was 25.88 ± 1.37 pg/mL and the IL6 concentration [2] was 568.73 ± 24.74 pg/mL. It also gave an IL7 concentration [2] of 2.09 ± 0.14 pg/mL, an IL8 concentration [2] of 3023.88 ± 193.36 pg/mL and an IL9 concentration [2] of 3.28 ± 0.35 pg/mL. It also gave an IL10 concentration [2] of 0.84 ± 0.06 pg/mL, an IL12p70 concentration [2] of 1.87 ± 0.16 pg/mL and an IL13 concentration [2] of 2.52 ± 0.3 pg/mL. It also gave an IL15 concentration [2] of 2.57 ± 0.54 pg/mL, an IL17A concentration [2] of 4.43 ± 0.26 pg/mL and an IL18 concentration [2] of 159.36 ± 4.73 pg/mL. The IL21 concentration [2] was 2.47 ± 0.28 pg/mL, the IL22 concentration [2] was 7.74 ± 0.78 pg/mL and the IL23 concentration [2] was 7.41 ± 0.5 pg/mL. The IL27 concentration [2] was 8.04 ± 1.65 pg/mL, the IL31 concentration [2] was 3.93 ± 0.4 pg/mL and the IP-10/CXCL10 concentration [2] was 4071.78 ± 411.22 pg/mL. The LIF concentration [2] was 71.92 ± 2.82 pg/mL, the MCP1 concentration [2] was 17302.89 ± 2102.89 pg/mL and the MIP1 alpha concentration [2] was 83.1 ± 2.77 pg/mL. For the same compound, the MIP1 beta concentration [2] was 318.83 ± 8.71 pg/mL, the PDGF-BB concentration [2] was 5.28 ± 0.15 pg/mL and the PIGF-1 concentration [2] was 54.61 ± 2.69 pg/mL. It also gave an RANTES concentration [2] of 183.18 ± 13.92 pg/mL, an SCF concentration [2] of 4.2 ± 0.17 pg/mL and an SDF-1 alpha concentration [2] of 3481.04 ± 134.24 pg/mL. It also gave a TNF alpha concentration [2] of 11233.91 ± 945.2 pg/mL, a TNF beta concentration [2] of 4.42 ± 0.45 pg/mL and a VEGF-A concentration [2] of 1232.36 ± 49.33 pg/mL. The VEGF-D concentration [2] was 9.12 ± 0.78 pg/mL, the bNGF concentration [2] was 6.52 ± 0.69 pg/mL and the BDNF concentration (no stimulation, drug 200 nM) was 5.35 ± 0.34 pg/mL. For the same compound, the EGF concentration (no stimulation, drug 200 nM) was 1.06 ± 0.14 pg/mL, the Eotaxin concentration (no stimulation, drug 200 nM) was 2.22 ± 0.09 pg/mL and the FGF-2 concentration (no stimulation, drug 200 nM) was 8.5 ± 0.95 pg/mL. For the same compound, the GM-CSF concentration (no stimulation, drug 200 nM) was 8.69 ± 1.22 pg/mL, the GRO alpha concentration (no stimulation, drug 200 nM) was 228.97 ± 14.45 pg/mL and the HGF concentration (no stimulation, drug 200 nM) was 4.44 ± 0.32 pg/mL. For the same compound, the IFN alpha concentration (no stimulation, drug 200 nM) was 0.23 ± 0.02 pg/mL, the IFN gamma concentration (no stimulation, drug 200 nM) was 3.39 ± 0.69 pg/mL and the IL1RA concentration (no stimulation, drug 200 nM) was 502.58 ± 57.22 pg/mL. For the same compound, the IL1 alpha concentration (no stimulation, drug 200 nM) was 0.29 ± 0.03 pg/mL, the IL1 beta concentration (no stimulation, drug 200 nM) was 0.98 ± 0.14 pg/mL and the IL2 concentration (no stimulation, drug 200 nM) was 3.32 ± 0.6 pg/mL. It also gave an IL4 concentration (no stimulation, drug 200 nM) of 4.61 ± 0.7 pg/mL, an IL5 concentration (no stimulation, drug 200 nM) of 2.84 ± 0.38 pg/mL and an IL6 concentration (no stimulation, drug 200 nM) of 26.86 ± 2.62 pg/mL. It also gave an IL7 concentration (no stimulation, drug 200 nM) of 3.03 ± 0.2 pg/mL, an IL8 concentration (no stimulation, drug 200 nM) of 261.92 ± 12.12 pg/mL and an IL9 concentration (no stimulation, drug 200 nM) of 3.91 ± 0.48 pg/mL. The IL10 concentration (no stimulation, drug 200 nM) was 0.32 ± 0.07 pg/mL, the IL12p70 concentration (no stimulation, drug 200 nM) was 1.55 ± 0.29 pg/mL and the IL13 concentration (no stimulation, drug 200 nM) was 1.14 ± 0.13 pg/mL. For the same compound, the IL15 concentration (no stimulation, drug 200 nM) was 2.22 ± 0.42 pg/mL, the IL17A concentration (no stimulation, drug 200 nM) was 1.2 ± 0.29 pg/mL and the IL18 concentration (no stimulation, drug 200 nM) was 6.04 ± 0.5 pg/mL. The IL21 concentration (no stimulation, drug 200 nM) was 2.43 ± 0.31 pg/mL, the IL22 concentration (no stimulation, drug 200 nM) was 8.13 ± 0.77 pg/mL and the IL23 concentration (no stimulation, drug 200 nM) was 5.8 ± 1.11 pg/mL. For the same compound, the IL27 concentration (no stimulation, drug 200 nM) was 7.57 ± 2.22 pg/mL, the IL31 concentration (no stimulation, drug 200 nM) was 3.01 ± 0.44 pg/mL and the IP-10/CXCL10 concentration (no stimulation, drug 200 nM) was 19.75 ± 0.42 pg/mL. The LIF concentration (no stimulation, drug 200 nM) was 23.25 ± 0.99 pg/mL, the MCP1 concentration (no stimulation, drug 200 nM) was 1125.31 ± 55.12 pg/mL and the MIP1 alpha concentration (no stimulation, drug 200 nM) was 2.63 ± 0.35 pg/mL. The MIP1 beta concentration (no stimulation, drug 200 nM) was 113.94 ± 3.76 pg/mL, the PDGF-BB concentration (no stimulation, drug 200 nM) was 2.15 ± 0.13 pg/mL and the PIGF-1 concentration (no stimulation, drug 200 nM) was 20.17 ± 1.26 pg/mL. The RANTES concentration (no stimulation, drug 200 nM) was 8.42 ± 0.51 pg/mL, the SCF concentration (no stimulation, drug 200 nM) was 1.93 ± 0.13 pg/mL and the SDF-1 alpha concentration (no stimulation, drug 200 nM) was 1003.25 ± 40.97 pg/mL. It also gave a TNF alpha concentration (no stimulation, drug 200 nM) of 2.4 ± 0.71 pg/mL, a TNF beta concentration (no stimulation, drug 200 nM) of 4.7 ± 0.28 pg/mL and a VEGF-A concentration (no stimulation, drug 200 nM) of 554.18 ± 29.76 pg/mL. It also gave a VEGF-D concentration (no stimulation, drug 200 nM) of 3.19 ± 0.57 pg/mL and a bNGF concentration (no stimulation, drug 200 nM) of 3.84 ± 0.71 pg/mL.
